For 19 molecules, Ki and EC50 results are on record in patent publication US20240174696A1, “2,8-DIAZASPIRO[4.5]DECANE COMPOUNDS” (Genentech, Inc., priority 2021, published 2024).

Molecules are shown by their SMILES.

Experiment [1] addresses T1, Human LATS2 catalytic domain (Homo sapiens (Human), UniProt Q9NRM7). Put plainly: Standard LATS2 HTRF Assay. It is filed as biochemical. The settings on record: asterisk: Standard LATS2 HTRF Assay, 50 μM ATP, 0.2 nM LATS2. The method, then: Human LATS2 catalytic domain which contains the amino acids G553-V1088 (accession NP_055387) was purified in-house. The LATS2 catalytic domain was co-purified with Mob1b (accession NP_775739). The LATS2 biochemical HTRF assay was performed using the HTRF KinEASE-STK S1 Kit (Cisbio, Cat #62ST1PEC), following the protocol from the manufacturer. Compounds were dispensed by the Echo Liquid Handler (Labcyte) into a white 384-well plate (PerkinElmer, Cat #6008289). 3 uL of 2×LATS2 enzyme solution was added to the compounds, following by a 10 minute incubation at room temperature. Then, 2×ATP and STK S1 peptide solution was added to initiate the one hour enzyme reaction at room temperature. The final condition of the reaction was 0.2 nM LATS2, 50 μM ATP, 0.5 μM STK S1 peptide in 50 mM HEPES pH7.2, 10 mM MgCl2, 0.1% BGG, 0.005% Brij-35, 1 mM DTT. The reaction was quenched by adding 6 uL of the detection mixture which contained Streptavidin XL665 and STK Antibody-Cryptate (Cisbio), incubate for 1 hour at room temperature. The HTRF (665 nm/620 nm) signal was read on the Envision plater reader (PerkinElmer). The IC50 values were determined by fitting the % inhibition with a nonlinear four-parameter logistical equation. The Ki values were calculated using the Cheng-Prusoff equation for a competitive inhibitor, IC50═Ki (1+S/Km)+M [E] with ATP Km for LATS2=105 μM.

Experiment [2] relates to TAZ nuclear translocation in SW1990 cells. Put plainly: TAZ Nuclear Translocation Assay. It is filed as cell-based. The settings on record: Homo sapiens, 4 hours. Summed up: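 SW1990 cells in RPMI1640/10% FBS treated with compounds for 4 h at 37 °C, then fixed and immunostained for TAZ with Hoechst nuclear counterstain and imaged by high-content imaging. Read-out is the nuclear/cytoplasmic-ring fluorescence ratio, normalized to DMSO (0%) and an inhibitor control (100%); EC50 from four-parameter fit.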

Experiment [3] addresses T1, Human LATS2 catalytic domain. Put plainly: LATS2 High ATP HTRF Assay. It is filed as biochemical. The settings on record: no asterisk: LATS2 High ATP HTRF Assay, 5000 μM ATP, 0.05 nM LATS2. An outline of the steps:
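Phosphorylation of 0.5 μM STK S1 peptide at high ATP (5000 μM), 2 h at room temperature, by 0.05 nM LATS2 kinase domain/Mob1b complex after 10 min compound pre-incubation. Ki derived from HTRF-based IC50 (4-parameter logistic) by Cheng-Prusoff, ATP Km 105 μM.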
Background: In TR-FRET formats the signal depends on donor and acceptor labels being close together.

Experiment [4] addresses Human LATS1 catalytic domain (Homo sapiens (Human), UniProt O95835). Briefly: LATS1 High ATP HTRF Assay. The settings on record: 5000 μM ATP, 0.025 nM LATS1; Cheng-Prusoff. It is filed as biochemical. The method, then:
Human LATS1 catalytic domain which contains the amino acids E590-V1130 (accession NP_004681) was purified in-house. The LATS1 catalytic domain was co-purified with Mob1b (accession NP_775739). The LATS1 biochemical assay was performed using the HTRF KinEASE-STK S1 Kit (Cisbio, Cat #62ST1PEC), following the protocol from the manufacturer. Compounds were dispensed by the Echo Liquid Handler (Labcyte) into a white 384-well plate (PerkinElmer, Cat #6008289). 3 μL of 2×LATS1 enzyme solution was added to the compounds, followed by a 10 minute incubation at room temperature. Then, 3 μL of 2×ATP and STK S1 peptide solution was added to initiate the enzyme reaction for one hour at room temperature. The final condition of the reaction was 0.025 nM LATS1, 5000 μM ATP, 0.5 μM STK S1 peptide in 50 mM HEPES pH 7.2, 10 mM MgCl2, 0.1% BGG, 0.005% Brij-35, 1 mM DTT. The reaction was quenched and the HTRF signal was read.

The subject of experiment [5] is pYAP(Ser127) in SW1990 cells. Briefly: pYAP(Ser127) HTRF Cellular Assay. It is filed as cell-based. Conditions: Homo sapiens, 4 hours. On the procedure: The SW1990 cells were seeded at 8000 cells/well by adding 30 μL/well of cells in RPMI1640, 10% FBS, 2 mM glutamine culture media to a 384-well plate (Corning 3570). The cells were incubated overnight at 37° C. Next day, compounds were directly added to the cells using the Echo Liquid Handler (Labcyte), incubate at 37° C. for 4 hours.
The HTRF assay was performed using the Cisbio phospho-YAP Ser127 HTRF kit (64YAPPEG). The media was aspirated from the cells. 20 μL of 1X lysis/blocking buffer was added to the cells, gently shake for 30 minutes at room temperature. 1 μL of the premixed antibody solution (1:40 dilution of each phospho-YAP Eu Cryptate antibody and phospho-YAP d2 antibody) was added to the cells. The plate was sealed and incubated overnight at room temperature. The HTRF (665 nm/620 nm) signal was read on the PHERAstar reader (BMG Labtech). The EC50 values were calculated by fitting the % inhibition with a nonlinear four-parameter logistical equation.

Usually Ki stands for the dissociation constant of the complex between target and ligand, obtained from inhibition or displacement. High values mean lower affinity, low ones higher affinity. A word on the EC50: it is the midpoint of the concentration-response curve.

T1 sequence (Q9NRM7 553-1088): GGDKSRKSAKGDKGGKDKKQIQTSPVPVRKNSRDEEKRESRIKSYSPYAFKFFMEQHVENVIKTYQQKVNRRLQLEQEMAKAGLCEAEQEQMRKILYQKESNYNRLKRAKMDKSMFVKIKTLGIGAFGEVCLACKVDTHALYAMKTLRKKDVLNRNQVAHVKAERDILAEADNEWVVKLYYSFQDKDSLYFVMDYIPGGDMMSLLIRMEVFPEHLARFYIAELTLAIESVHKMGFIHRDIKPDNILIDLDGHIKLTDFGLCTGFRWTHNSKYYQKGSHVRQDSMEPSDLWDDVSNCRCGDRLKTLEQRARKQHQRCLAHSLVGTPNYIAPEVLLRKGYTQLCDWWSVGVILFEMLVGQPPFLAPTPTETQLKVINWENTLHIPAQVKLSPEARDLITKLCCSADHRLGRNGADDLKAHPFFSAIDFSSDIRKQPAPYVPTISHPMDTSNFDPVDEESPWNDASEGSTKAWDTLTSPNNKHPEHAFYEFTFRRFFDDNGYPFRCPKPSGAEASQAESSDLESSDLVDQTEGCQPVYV
T1 sequence (Q7L9L4 whole entry partner, the tested form may be a part): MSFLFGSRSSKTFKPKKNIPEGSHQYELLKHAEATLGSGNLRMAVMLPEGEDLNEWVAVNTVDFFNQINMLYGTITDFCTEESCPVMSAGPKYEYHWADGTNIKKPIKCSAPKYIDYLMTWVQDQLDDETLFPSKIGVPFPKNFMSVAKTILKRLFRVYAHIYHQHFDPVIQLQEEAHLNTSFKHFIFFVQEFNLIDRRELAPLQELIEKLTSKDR
Chain of Human LATS1 catalytic domain (O95835 590-1130): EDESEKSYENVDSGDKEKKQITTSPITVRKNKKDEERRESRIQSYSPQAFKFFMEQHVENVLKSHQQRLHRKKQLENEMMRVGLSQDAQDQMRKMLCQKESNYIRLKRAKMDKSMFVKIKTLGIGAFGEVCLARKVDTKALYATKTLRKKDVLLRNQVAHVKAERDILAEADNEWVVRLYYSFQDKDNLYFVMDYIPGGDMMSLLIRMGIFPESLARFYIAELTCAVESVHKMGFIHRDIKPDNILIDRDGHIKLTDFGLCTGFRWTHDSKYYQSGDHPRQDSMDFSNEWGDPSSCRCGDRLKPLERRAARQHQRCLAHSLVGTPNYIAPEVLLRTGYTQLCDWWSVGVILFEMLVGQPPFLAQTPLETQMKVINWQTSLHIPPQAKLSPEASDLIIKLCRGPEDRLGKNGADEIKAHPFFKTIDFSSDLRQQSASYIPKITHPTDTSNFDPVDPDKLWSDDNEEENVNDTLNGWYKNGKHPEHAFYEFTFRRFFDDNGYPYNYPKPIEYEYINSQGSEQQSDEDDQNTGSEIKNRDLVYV
Chain of Human LATS1 catalytic domain (Q7L9L4 whole entry partner, the tested form may be a part): as the sequence (Q7L9L4 whole entry partner, the tested form may be a part) above

Take `O=C1CC2(CCN(c3nc(-c4ccncc4)nc4cnccc34)CC2)CN1` [Compound 164, 8-(2-(pyridin-4-yl)pyrido[3,4-d]pyrimidin-4-yl)-2,8-diazaspiro[4.5]decan-3-one]: the Ki in experiment [1] turned out to be 9.42 nM; in experiment [3], 53.5 nM. The same molecule gave an EC50 in experiment [2] above 10000 nM.

With `O=C1NCCC12CCN(c1nc(-c3ccncc3)nc3cnccc13)CC2` [Compound 165, 8-(2-(pyridin-4-yl)pyrido[3,4-d]pyrimidin-4-yl)-2,8-diazaspiro[4.5]decan-1-one], the inhibition constant (Ki) in experiment [1] stood at 3.93 nM; in experiment [3], 5.35 nM. Also, in experiment [2], the EC50 stood at 6500 nM.

As to `C[C@H](O)CN1CCC2(CCN(c3nc(-c4ccncc4)nc4cnccc34)CC2)C1` (single isomer, unassigned) [Compound 115], the EC50 in experiment [2] amounted to 300 nM; in experiment [5], 310 nM. Further, the values for the inhibition constant Ki in experiment [4] and in experiment [3] were 0.0063 nM and 0.13 nM, respectively.

For `O[C@@H]1CCC[C@H]1N1CCC2(CCN(c3nc(-c4ccncc4)nc4cnccc34)CC2)C1` (single isomer, unassigned) [Compound 128], the EC50 in experiment [2] was found to be 300 nM; in experiment [5] it was 360 nM. The figures for the Ki in experiment [4] and in experiment [3] were 0.0058 nM and 0.073 nM, respectively.

The molecule `FC(F)(F)c1[nH]ncc1-c1nc(N2CCC3(CCNC3)CC2)c2ccncc2n1` [Compound 154, 4-(2,8-diazaspiro[4.5]decan-8-yl)-2-(5-(trifluoromethyl)-1H-pyrazol-4-yl)pyrido[3,4-d]pyrimidine] showed a Ki in experiment [1] of 0.16 nM. The molecule also registered an EC50 in experiment [2] of 7200 nM.

As to `Cc1n[nH]cc1-c1nc(N2CCC3(CC2)CCN(C2CCCC2)C3)c2ccncc2n1` [Compound 147, 4-(2-cyclopentyl-2,8-diazaspiro[4.5]decan-8-yl)-2-(3-methyl-1H-pyrazol-4-yl)pyrido[3,4-d]pyrimidine], the concentration for a half-maximal effect (EC50) in experiment [2] worked out at 180 nM; in experiment [5], 210 nM. Also, the Ki was 0.013 nM in experiment [4] and 0.056 nM in experiment [3].

For `N#CC1CC(N2CCC3(CCN(c4nc(-c5ccncc5)nc5cnccc45)CC3)C2)C1` (centres unmarked) [Compound 118, 3-(8-(2-(pyridin-4-yl)pyrido[3,4-d]pyrimidin-4-yl)-2,8-diazaspiro[4.5]decan-2-yl)cyclobutanecarbonitrile], in experiment [1], the Ki came to 1.02 nM. The same molecule yielded an EC50 in experiment [2] above 10000 nM.

Consider `O[C@H]1CCC[C@@H]1N1CCC2(CCN(c3nc(-c4ccncc4)nc4cnccc34)CC2)C1` (single isomer, unassigned) [Compound 129], for which the EC50 was found to be 140 nM in experiment [2] and 290 nM in experiment [5]. In addition, the Ki stood at 0.0074 nM in experiment [4] and 0.076 nM in experiment [3].

In experiment [1], `c1cc(-c2nc(N3CCC4(CC3)CCN(C3CCOCC3)C4)c3ccncc3n2)ccn1` [Compound 122, 2-(pyridin-4-yl)-4-(2-(tetrahydro-2H-pyran-4-yl)-2,8-diazaspiro[4.5]decan-8-yl)pyrido[3,4-d]pyrimidine] displayed an inhibitory constant (Ki) of 1.02 nM. In experiment [2], this molecule returned a half-maximal effective concentration (EC50) of 990 nM.

As for `CN1CCC2(CCN(c3nc(-c4ccncc4)nc4cnccc34)CC2)C1` [Compound 102, 4-(2-methyl-2,8-diazaspiro[4.5]decan-8-yl)-2-(pyridin-4-yl)pyrido[3,4-d]pyrimidine], the results for the half-maximal effective concentration (EC50) in experiment [2] and in experiment [5] were 350 nM and 430 nM, respectively. Also, the values for the Ki in experiment [4] and in experiment [3] were 0.011 nM and 0.98 nM, respectively.

As for `c1cc(-c2nc(N3CCC4(CCN(CC5COC5)C4)CC3)c3ccncc3n2)ccn1` [Compound 124, 4-(2-(oxetan-3-ylmethyl)-2,8-diazaspiro[4.5]decan-8-yl)-2-(pyridin-4-yl)pyrido[3,4-d]pyrimidine], the 50% effective concentration (EC50) in experiment [2] was 240 nM; in experiment [5], 260 nM. Further, the figures for the Ki in experiment [4] and in experiment [3] were 0.0068 nM and 0.083 nM, respectively.

For the molecule `c1ccc(Cc2cc3c(N4CCC5(CCNC5)CC4)nc(-c4ccncc4)nc3cn2)cc1` [Compound 157, 6-benzyl-2-(pyridin-4-yl)-4-(2,8-diazaspiro[4.5]decan-8-yl)pyrido[3,4-d]pyrimidine], the results for the EC50 in experiment [2] and in experiment [5] were 240 nM and 510 nM, respectively. The Ki came to 0.049 nM in experiment [4] and 0.067 nM in experiment [3].

`CC(C)(O)CN1CCC2(CCN(c3nc(-c4ccncc4)nc4cnccc34)CC2)C1` [Compound 110, 2-methyl-1-(8-(2-(pyridin-4-yl)pyrido[3,4-d]pyrimidin-4-yl)-2,8-diazaspiro[4.5]decan-2-yl)propan-2-ol]: the EC50 stood at 220 nM in experiment [2] and 330 nM in experiment [5]. Moreover, the inhibitory constant (Ki) in experiment [4] amounted to 0.0079 nM; in experiment [3] it was 0.075 nM.

The molecule `c1cc(-c2nc(N3CCC4(CC3)CCN(C3COC3)C4)c3ccncc3n2)ccn1` [Compound 137, 4-(2-(oxetan-3-yl)-2,8-diazaspiro[4.5]decan-8-yl)-2-(pyridin-4-yl)pyrido[3,4-d]pyrimidine] came in with a Ki in experiment [1] of 2.17 nM. Also, it took 1700 nM to reach a half-maximal effect in experiment [2] (EC50).

Regarding `C[C@@H](O)CN1CCC2(CCN(c3nc(-c4ccncc4)nc4cnccc34)CC2)C1` (single isomer, unassigned) [Compound 116], the EC50 was determined as 310 nM in experiment [2] and 320 nM in experiment [5]. Further, the Ki in experiment [4] stood at 0.0079 nM; in experiment [3], 0.13 nM.

The molecule `Cc1cc2c(N3CCC4(CCNC4)CC3)nc(-c3ccncc3)nc2cn1` [Compound 158, 6-methyl-2-(pyridin-4-yl)-4-(2,8-diazaspiro[4.5]decan-8-yl)pyrido[3,4-d]pyrimidine] yielded a Ki in experiment [1] of 1.29 nM. Further, the half-maximal effective concentration (EC50) in experiment [2] came to 3100 nM.

Regarding `c1cc(-c2nc(N3CCC4(CCNC4)CC3)c3ccncc3n2)ccn1` [Compound 101, 2-(pyridin-4-yl)-4-(2,8-diazaspiro[4.5]decan-8-yl)pyrido[3,4-d]pyrimidine], the half-maximal effective concentration (EC50) is 990 nM in experiment [2] and 1100 nM in experiment [5]. Also, the inhibition constant (Ki) in experiment [4] was found to be 0.051 nM; in experiment [3], 0.38 nM.

For the molecule `CCN1CCC2(CCN(c3nc(-c4cn[nH]c4C)nc4cnccc34)CC2)C1` [Compound 151, 4-(2-ethyl-2,8-diazaspiro[4.5]decan-8-yl)-2-(5-methyl-1H-pyrazol-4-yl)pyrido[3,4-d]pyrimidine], the concentration for a half-maximal effect (EC50) came to 470 nM in experiment [2] and 390 nM in experiment [5]. Further, the Ki in experiment [3] amounted to 0.09 nM.

With `FC(F)(F)CN1CCC2(CCN(c3nc(-c4ccncc4)nc4cnccc34)CC2)C1` [Compound 105, 2-(pyridin-4-yl)-4-(2-(2,2,2-trifluoroethyl)-2,8-diazaspiro[4.5]decan-8-yl)pyrido[3,4-d]pyrimidine], the concentration giving a half-maximal response (EC50) in experiment [2] turned out to be 2300 nM; in experiment [5], 5800 nM. Besides, in experiment [3], the Ki worked out at 3.08 nM.
